In brackets after ≈: the same amount, converted by molar mass.
Tests used:
[1] = biological target: Adenosine receptor A2a (Homo sapiens, UniProt P29274)
Description: Antagonist activity at human adenosine A2A receptor

[2] = AUC (0 to 6 hrs) in rat at 3 mg/kg, po; format: ADME, organism-based; design: time < 6 hr, dose 3 mg/kg, route oral; settings: plasma
[3] = Kinetic solubility of compound at pH 7.4 by nephelometry; format: physicochemical; settings: buffer
[4] = system: Rattus norvegicus; assay: Inhibition of haloperidol-induced catalepsy in rat at 3 mg/kg, po after 4 hrs; format: functional
[5] = system: Rattus norvegicus; assay: Inhibition of haloperidol-induced catalepsy in rat at 3 mg/kg, po after 1 hr; format: functional
[6] = system: Rattus norvegicus; assay: Inhibition of haloperidol-induced catalepsy in rat at 1 or 3 mg/kg, po after 1 hr; format: functional
[7] = system: Rattus norvegicus; assay: Inhibition of haloperidol-induced catalepsy in rat at 1 or 3 mg/kg, po after 4 hrs; format: functional
[8] = system: Rattus norvegicus; assay: Inhibition of haloperidol-induced catalepsy in rat at 1 mg/kg, po after 1 hr; format: functional
[9] = system: Rattus norvegicus; assay: Inhibition of haloperidol-induced catalepsy in rat at 1 mg/kg, po after 4 hrs; format: functional

Adenosine receptor A2a, sequence (P29274 whole entry): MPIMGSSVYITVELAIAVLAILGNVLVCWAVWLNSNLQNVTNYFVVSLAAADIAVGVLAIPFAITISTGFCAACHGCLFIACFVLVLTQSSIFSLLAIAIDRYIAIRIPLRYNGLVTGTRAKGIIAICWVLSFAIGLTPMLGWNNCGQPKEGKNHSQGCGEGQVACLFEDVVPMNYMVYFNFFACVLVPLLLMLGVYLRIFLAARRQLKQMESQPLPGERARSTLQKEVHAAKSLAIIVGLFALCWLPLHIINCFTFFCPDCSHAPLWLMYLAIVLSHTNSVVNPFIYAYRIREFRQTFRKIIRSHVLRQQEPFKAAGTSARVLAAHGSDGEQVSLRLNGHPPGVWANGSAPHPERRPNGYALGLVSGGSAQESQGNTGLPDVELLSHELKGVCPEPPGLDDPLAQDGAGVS

| Structure (SMILES) | Ki [1] [nM] | AUC(0-t) at 6 h [2] [ng·h/mL] | solubility kinetic [3] [µM] | inhibition in vivo at 3 mg/kg [4] [%] | inhibition in vivo at 3 mg/kg [5] [%] | inhibition in vivo at 3 mg/kg [6] [%] | inhibition in vivo at 3 mg/kg [7] [%] | inhibition in vivo at 1 mg/kg [8] [%] | inhibition in vivo at 1 mg/kg [9] [%] |
| --- | --- | --- | --- | --- | --- | --- | --- | --- | --- |
| Nc1nc2c(cnn2CCc2ccc(-c3cccnc3)cn2)c2nc(-c3ccco3)nn12 | 11.4 | – | – | – | – | – | – | – | – |
| CCc1ccc2cc(CCn3ncc4c3nc(N)n3nc(-c5ccco5)nc43)ccc2n1 | 2.7 | 450 | < 2.5 | 38 | 43 | – | – | – | – |
| Nc1nc2c(cnn2CCc2ccc3nc(CN4CCOCC4)ccc3c2)c2nc(-c3ccco3)nn12 | 2.3 | 656 | – | 0 | 0 | – | – | – | – |
| Nc1nc2c(cnn2CCc2ccc(-c3ccc(OC(F)(F)F)cc3)cc2)c2nc(-c3ccco3)nn12 | 7.8 | 67 | < 5 | – | – | 20 | 0 | – | – |
| Cc1ccc(-c2ccc(CCn3ncc4c3nc(N)n3nc(-c5ccco5)nc43)cc2)cn1 | 0.6 | 199 | < 5 | – | – | 60 | 25 | – | – |
| COc1ccc(-c2ccc(CCn3ncc4c3nc(N)n3nc(-c5ccco5)nc43)cc2)cc1 | 0.5 | – | < 5 | – | – | – | – | 30 | 5 |
| Nc1nc2c(cnn2CCc2ccc3nc(C(=O)N4CCOCC4)ccc3c2)c2nc(-c3ccco3)nn12 | 1.6 | – | 100 (≈ 51 µg/mL) | 13 | 23 | – | – | – | – |
| Nc1nc2c(cnn2CCc2ccc(-c3cccnc3)cc2)c2nc(-c3ccco3)nn12 | 1.5 | 351 | < 4 | – | – | – | – | 40 | 25 |
| Cc1ccc2cc(CCn3ncc4c3nc(N)n3nc(-c5ccco5)nc43)ccc2n1 | 2.4 | 1400 | 6 (≈ 2.46 µg/mL) | 38 | 86 | – | – | – | – |
| COCCOC(C)c1ccc2cc(CCn3ncc4c3nc(N)n3nc(-c5ccco5)nc43)ccc2n1 (stereo not given) | 1.5 | – | – | – | – | – | – | – | – |
| Nc1nc2c(cnn2CCc2ccc3nc(N4CCOCC4)ccc3c2)c2nc(-c3ccco3)nn12 | 1.8 | 6 | – | – | – | – | – | – | – |
| Nc1nc2c(cnn2CCc2ccc(-c3ccccc3)cc2)c2nc(-c3ccco3)nn12 | 1.1 | – | – | – | – | – | – | – | – |
| CC(c1ccc2cc(CCn3ncc4c3nc(N)n3nc(-c5ccco5)nc43)ccc2n1)N1CCOCC1 (stereo not given) | 1.3 | 7490 | 100 (≈ 51 µg/mL) | 13 | 28 | – | – | – | – |
| Nc1nc2c(cnn2CCc2ccc(-c3cnccn3)cc2)c2nc(-c3ccco3)nn12 | 0.9 | 114 | < 4 | 3 | – | – | – | – | – |
| COc1ccc(-c2ccc(CCn3ncc4c3nc(N)n3nc(-c5ccco5)nc43)cc2)cn1 | 1.9 | – | < 5 | 0 | – | – | – | – | – |
| Nc1nc2c(cnn2CCc2cccc(-c3cccnc3)c2)c2nc(-c3ccco3)nn12 | 5.5 | – | – | – | – | – | – | – | – |

From ChEMBL document CHEMBL1155026, “Biaryl and heteroaryl derivatives of SCH 58261 as potent and selective adenosine A2A receptor antagonists” (Bioorg Med Chem Lett, 2008)
